# Legend:
# PPARα [1] = experiment: Western blot analysis of PPARα expression in 661W cells; type: cell-based, mouse; details: 24 h treatment
# [2] = test system: PPARα target genes (Acadm, Cpt1a, Fabp3, Slc25a20); experiment: RT-PCR of PPARα target genes in 661W cells; type: cell-based, mouse; details: 24 h treatment, n=6
# [3] = test system: human retinal capillary endothelial cells (HRCEC); experiment: in vitro wound healing assay; type: cell-based; details: 10 h and 24 h incubation
# hPPARα [4] = molecular target: T1, hPPARα (Homo sapiens, UniProt Q07869); experiment: cell-based
# T1 sequence (Q07869 1-468): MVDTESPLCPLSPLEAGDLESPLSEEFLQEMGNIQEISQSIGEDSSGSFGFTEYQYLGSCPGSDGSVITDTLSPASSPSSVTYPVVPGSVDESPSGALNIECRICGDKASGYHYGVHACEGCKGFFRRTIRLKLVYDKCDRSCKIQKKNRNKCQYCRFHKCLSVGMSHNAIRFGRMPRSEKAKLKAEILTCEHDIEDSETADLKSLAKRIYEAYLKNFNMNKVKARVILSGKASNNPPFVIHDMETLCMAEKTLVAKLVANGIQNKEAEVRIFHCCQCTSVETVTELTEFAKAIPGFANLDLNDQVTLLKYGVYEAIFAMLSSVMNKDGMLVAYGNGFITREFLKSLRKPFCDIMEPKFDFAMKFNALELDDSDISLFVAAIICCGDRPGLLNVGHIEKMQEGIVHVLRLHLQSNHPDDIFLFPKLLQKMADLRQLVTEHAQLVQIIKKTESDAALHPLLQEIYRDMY
# hPPARα [5] = molecular target: T1, hPPARα; experiment: PPARα luciferase cell reporter assay; details: for PPAR isoform selectivity profile: hPPARδ, hPPARγ luciferase cell-lines
# PPARα [6] = details: read-out: EC50 in biochemical PPARα assays; cited from earlier work
# [7] = test system: retinas of mice and diabetic rats; details: cited from earlier work
# type 2 diabetic patients = details: FIELD and ACCORD; cited from earlier work
structure (smiles),measurement,setting,value
COc1ccc(COc2ccc(CNc3cccc(C(=O)O)c3)cc2)cc1 [Compound 10],PPARα expression (Western blot),PPARα [1],induced the expression of PPARα in a dose-dependent manner
same,expression of PPARα target genes (RT-PCR),[2],induces the expression of various PPARα target genes
same,wound closure (cell migration),[3],inhibits wound closure in a dose-dependent fashion
same,EC50,hPPARα [4],~6 µM
COc1ccc(COc2ccc(CNc3cccc(C(=O)O)c3)c(OCc3ccc(OC)cc3)c2)cc1 [Compound 26],PPAR isoform selectivity profile,hPPARα [5]; hPPARα,maintains the selectivity
COc1ccc(COc2ccc(CNc3cccc(OC(C)(C)C(=O)O)c3)c(OCc3ccc(OC)cc3)c2)cc1 [Compound 28],PPAR isoform selectivity profile,hPPARα [5]; hPPARα,pan-agonist profile was maintained
same,improvement in potency versus 22,"hPPARα [5]; hPPARα, compare 22 and 28",10 fold
"Cc1c(Cl)ccc2c(C(=O)O)cc(-c3ccccc3)nc12 [Compound Y-0452, 7-chloro-8-methyl-2-phenylquinoline-4-carboxylic acid]",EC50,PPARα [6],25 to 50 µM
same,toxicity in the retinas,[7]; mice and diabetic rats,without signs of toxicity
same,effects in vivo against DR,[7]; retinas of mice and diabetic rats,protective effects in vivo against DR
"Cc1nc(-c2ccc(C(F)(F)F)cc2)sc1C(=O)NCc1ccc(OC(C)(C)C(=O)O)cc1 [GW590735, reference compound]",cytotoxicity in reporter assay,hPPARα [5]; concentrations higher than 10 μM,observed cytotoxicity at higher concentrations
CC(C)OC(=O)C(C)(C)Oc1ccc(C(=O)c2ccc(Cl)cc2)cc1 [fenofibrate],effects against diabetic macular edema (DME) and retinal NV,type 2 diabetic patients,robust protective effects

# — publication PMC6119630 (Bioorganic & medicinal chemistry letters, 2018)
